From ChEMBL document CHEMBL5543162, “Discovery of a Novel Orally Bioavailable FLT3-PROTAC Degrader for Efficient Treatment of Acute Myeloid Leukemia and Overcoming Resistance of FLT3 Inhibitors” (J Med Chem, 2024)

Columns and labels:
Assay type in all cases: functional, cell-based
[1] = tested on: MV4-11; assay: Antiproliferative activity against human MV4-11 cells expressing FLT3-ITD mutant incubated for 48 hrs by CCK8 assay; conditions: MV4-11, 48 h
[2] = tested on: MOLM-13; assay: Antiproliferative activity against human MOLM-13 cells incubated for 48 hrs by CCK8 assay; conditions: MOLM-13, 48 h
[3] = tested on: MOLM-13; assay: Antiproliferative activity against Sunitinib-resistant human MOLM-13 cells incubated for 48 hrs by CCK8 assay; conditions: MOLM-13, 48 h
[4] = tested on: MOLM-13; assay: Antiproliferative activity against Quizartinib-resistant human MOLM-13 cells incubated for 48 hrs by CCK8 assay; conditions: MOLM-13, 48 h

IC50 [1] [nM] | IC50 [2] [nM] | IC50 [3] [nM] | IC50 [4] [nM] | Structure (SMILES)
360 | > 1000 |  |  | Cc1ncsc1-c1ccc(CNC(=O)[C@@H]2C[C@@H](O)CN2C(=O)[C@@H](NC(=O)CCCCC(=O)N2CCN(CC(=O)Nc3c[nH]c(/C=C4\C(=O)Nc5ccc(F)cc54)c3C)CC2)C(C)(C)C)cc1
410 | > 1000 |  |  | Cc1ncsc1-c1ccc(CNC(=O)[C@H]2C[C@H](O)CN2C(=O)[C@@H](NC(=O)CCCCCCCCC(=O)N2CCN(CC(=O)Nc3c[nH]c(/C=C4\C(=O)Nc5ccc(F)cc54)c3C)CC2)C(C)(C)C)cc1
33.7 | 39.4 | 1230 | 40900 | CC(C)(C)c1cc(NC(=O)Nc2ccc(-c3cn4c(n3)sc3cc(OCCN5CCOCC5)ccc34)cc2)no1 [QUIZARTINIB]
91.4 | 220 |  |  | Cc1c(NC(=O)CN2CCN(C(=O)CCCCCCCNc3cccc4c3C(=O)N(C3CCC(=O)NC3=O)C4=O)CC2)c[nH]c1/C=C1\C(=O)Nc2ccc(F)cc21 (stereo unspecified)
214 | 233 |  |  | Cc1c(NC(=O)CN2CCN(C(=O)CCCCCCCCC(=O)NCCNc3cccc4c3C(=O)N(C3CCC(=O)NC3=O)C4=O)CC2)c[nH]c1/C=C1\C(=O)Nc2ccc(F)cc21 (stereo unspecified)
40.2 | 67.5 | 10900 | 2320 | CCc1nc(C(N)=O)c(Nc2ccc(N3CCC(N4CCN(C)CC4)CC3)c(OC)c2)nc1NC1CCOCC1 [GILTERITINIB]
326 | 542 |  |  | Cc1c(NC(=O)CN2CCN(C(=O)CCOCCNc3cccc4c3C(=O)N(C3CCC(=O)NC3=O)C4=O)CC2)c[nH]c1/C=C1\C(=O)Nc2ccc(F)cc21 (stereo unspecified)
193 | 273 |  |  | Cc1c(NC(=O)CN2CCN(C(=O)CCCCCCCCCCNc3cccc4c3C(=O)N(C3CCC(=O)NC3=O)C4=O)CC2)c[nH]c1/C=C1\C(=O)Nc2ccc(F)cc21 (stereo unspecified)
170 | 367 |  |  | Cc1c(NC(=O)CN2CCN(C3CN(c4ccc5c(c4)C(=O)N(C4CCC(=O)NC4=O)C5=O)C3)CC2)c[nH]c1/C=C1\C(=O)Nc2ccc(F)cc21 (stereo unspecified)
812 | > 1000 |  |  | Cc1c(NC(=O)CN2CCN(C(=O)CCOCCNC(=O)COc3cccc4c3C(=O)N(C3CCC(=O)NC3=O)C4=O)CC2)c[nH]c1/C=C1\C(=O)Nc2ccc(F)cc21 (stereo unspecified)
396 | 445 |  |  | Cc1c(NC(=O)CN2CCN(C(=O)CCOCCOCCOCCNc3cccc4c3C(=O)N(C3CCC(=O)NC3=O)C4=O)CC2)c[nH]c1/C=C1\C(=O)Nc2ccc(F)cc21 (stereo unspecified)
388 | > 1000 |  |  | Cc1c(NC(=O)CN2CCN(C(=O)CCOCCOCCNC(=O)COc3cccc4c3C(=O)N(C3CCC(=O)NC3=O)C4=O)CC2)c[nH]c1/C=C1\C(=O)Nc2ccc(F)cc21 (stereo unspecified)
201 | 686 |  |  | Cc1c(NC(=O)CN2CCN(C(=O)CCOCCOCCNc3cccc4c3C(=O)N(C3CCC(=O)NC3=O)C4=O)CC2)c[nH]c1/C=C1\C(=O)Nc2ccc(F)cc21 (stereo unspecified)
126 | 333 |  |  | Cc1c(NC(=O)CN2CCN(CC3CN(c4ccc5c(c4)C(=O)N(C4CCC(=O)NC4=O)C5=O)C3)CC2)c[nH]c1/C=C1\C(=O)Nc2ccc(F)cc21 (stereo unspecified)
216 | > 1000 |  |  | Cc1ncsc1-c1ccc(CNC(=O)[C@@H]2C[C@@H](O)CN2C(=O)[C@@H](NC(=O)CCCCCC(=O)N2CCN(CC(=O)Nc3c[nH]c(/C=C4\C(=O)Nc5ccc(F)cc54)c3C)CC2)C(C)(C)C)cc1
168 | 487 |  |  | Cc1c(NC(=O)CN2CCN(C(=O)CCCCCC(=O)NCCNc3cccc4c3C(=O)N(C3CCC(=O)NC3=O)C4=O)CC2)c[nH]c1/C=C1\C(=O)Nc2ccc(F)cc21 (stereo unspecified)
